Tested on: Hepatocyte
Settings: rat, hepatocytes, 10 min, 5 µM

- CLb: 52%
Compound: O=C(O)C[C@H](O)C[C@H](O)/C=C/c1c(C2CC2)nc2ccccc2c1-c1ccc(F)cc1 [PITAVASTATIN]

Reference: ChEMBL document CHEMBL3526085, “Decreased hepatic breast cancer resistance protein expression and function in multidrug resistance-associated protein 2-deficient (TR⁻) rats” (Drug Metab Dispos, 2011)
